Assay results: patent US20080113900A1, “Pharmaceutical compositions and therapeutic applications for the use of a synthetic vitamin B12 derivative, glutathionylcobalamin” (priority 2006, published 2008)
Values joined by “and” are separate entries in the source; they are usually repeats but may differ in a detail not shown here. Equal values may be shown once. Where a name gives a salt, the structure may show the parent alone.

Assays:
Hsp32 = Hsp32 gene expression (RT-PCR, densitometry); assay type: cell-based, human
Method: (§1) Cells were plated into 6-, 12-, or 24-well cell culture clusters, at 2×10^3, 2×10^5, or 1×10^5 cells per well and incubated until 90% confluent. Treatments were applied as above.
(§2) Following incubation, cells were subjected to mRNA extraction followed by cDNA synthesis for each sample under test. Polymerase chain reaction cDNA templates were prepared for simplex PCR protocol. PCR products were then visualized using a UV Transilluminator and images captured using a Kodak ID gel imaging system. Densitometry and statistical analysis was then performed on each gene expression band image using PSP® v 10.0 running under Windows XP®.
(§3) mRNA extraction was performed using the Quickprep micro mRNA Purification Kit. Following incubation of cells post-treatment, the media was removed from the cells, adherent cells were re-suspended in 0.4 ml extraction buffer and 0.8 ml elution buffer at 65° C. was added.
A reaction mixture was prepared in individual microcentrifuge tubes containing 2 cDNA synthesis beads, 32 μl of the mRNA solution and 1 μl of pd(N)6. This mixture was incubated at 37° C. in a water bath for 60 minutes. After incubation, 27 μl of RNase-free DEPC treated water was added to each tube to make a total volume 60 μl. cDNA samples were prepared in duplicate. Sample 1 was used immediately in RT-PCR protocol. Sample 2 was prepared for qPCR protocol by the addition of 150 μl of 95% ice-cold ethanol and stored at −20° C.
Microcentrifuge tubes from puReTaq™Ready-To-Go™ PCR Beads containing one PCR bead were labeled for each sample required. Added to the PCR bead were 17 μl of RNase-free DEPC treated water, 1 μl sense primer, 1 μl anti-sense primer and 5 μl of the cDNA solution. RT-PCR conditions were as follows: Hsp70 and β-actin, pre-treatment step, 94° C. for 1 minute, followed by denaturing at 92° C. for 1 minute, annealing at 60° C. for 1 minute and extension at 72° C. for 1 minute. Total cycles, 30, post-treatment was then carried out at 72° C. for 10 minutes. For Hsp32, pre-treatment step, 95° C. for 2 minutes, followed by denaturing at 94° C. for 30 seconds, annealing at 58° C. for 1 minute and extension at 72° C. for 1 minute. Total cycles 45, post treatment was then carried out at 72° C. for 10 minutes. Following RT-PCR, samples were stored at −20° C.
Gels were visualised on a UV Transilluminator. Photographs were stored using a Kodak Digital camera system fitted with a UV filter set connected to a PC. Images were then transferred to the Kodak ID gel imaging system. Densitometry was performed on each gene expression band using PSP™ v10 running under Windows XP®.
Experiments were conducted using Hsp32 and Hsp 70 gene expression as the basis for study. […] The densitometric data are presented as means ±SEM of n=3 separate experiments. *p<0.05 or **p<0.01, treatment vs. control.

SK-HEP-1 cells [1] = assay: Protection of endothelial cells from homocysteine-induced cell death (MTS assay); assay type: cell-based, human
Method: The effect of a constant concentration of NACCbl and GSCbl to protect cells against variable concentrations of homocysteine was assessed. […] Cell viability was determined by MTS® assay. Data shown in FIG. 4 are representative of means ±SE of 6 independent samples. FIG. 4 illustrates that NACCbl (▪) and GSCbl (▴) protect endothelial cells from the effect of homocysteine. […] Cell viability was determined by MTS® assay. […] There was a decrease in protection as homocysteine concentration increased, but there was still ˜60% survival at 50 μM homocysteine.
The data was normalized (log 2 and log 10) as shown in FIGS. 16 and 17 and Tables 16 and 17, respectively, below.

SK-HEP-1 cells [2] = assay: Effect of homocysteine and H2O2 on endothelial cell viability (MTS assay); conditions: for Normalized Data Log 2, Mean / Normalized Data Log 10, Mean: Hcy alone, n = 6; for Cell viability (MTS assay): SK-HEP-1, 2 hours, n = 6 replicates
Hsp70 = Hsp70 gene expression (RT-PCR, densitometry); conditions: SK-HEP-1, 30 μM, 2 hr
Method: as §1, §2, §3
A reaction mixture was prepared in individual microcentrifuge tubes containing 2 cDNA synthesis beads, 32 μl of the mRNA solution and 1 μl of pd(N)6. This mixture was incubated at 37° C. in a water bath for 60 minutes. After incubation, 27 μl of RNase-free DEPC treated water was added to each tube to make a total volume 60 μl. cDNA samples were prepared in duplicate. Sample 1 was used immediately in RT-PCR protocol.
Microcentrifuge tubes from puReTaq™Ready-To-Go™ PCR Beads containing one PCR bead were labeled for each sample required. Added to the PCR bead were 17 μl of RNase-free DEPC treated water, 1 μl sense primer, 1 μl anti-sense primer and 5 μl of the cDNA solution. RT-PCR conditions were as follows: Hsp70 and β-actin, pre-treatment step, 94° C. for 1 minute, followed by denaturing at 92° C. for 1 minute, annealing at 60° C. for 1 minute and extension at 72° C. for 1 minute. Total cycles, 30, post-treatment was then carried out at 72° C. for 10 minutes. For Hsp32, pre-treatment step, 95° C. for 2 minutes, followed by denaturing at 94° C. for 30 seconds, annealing at 58° C. for 1 minute and extension at 72° C. for 1 minute. […]

in vitro = conditions: human, SK-HEP-1 cells
SK-HEP-1 cells [3] = assay: NACCbl protection from homocysteine with inhibition of Hsp32/Hsp70 by Sn(IX) protoporphyrin, quercitin or siRNA (MTS assay); conditions: listed as Hcy
SK-HEP-1 cells [4] = assay: Protection from homocysteine-induced apoptosis, Caspase-3 activity (apoptosis assay); assay type: cell-based, human; conditions: 30 μM two hours, then 30 μM homocysteine two hours
Method: Caspase 3 is activated when cells undergo apoptosis. Caspase-3 assay is a standard for apoptosis assay. Homocysteine is a known inducer of apoptosis. Cells were cultured in 96-well plates for 24 hours and then treated with reagents under test conditions. Cytotoxic agents, H2O2 and etoposide were added to negative control wells. The assay was performed according to the manufacturer's protocol, as follows: Cells were re-suspended in 100 μl of clear media and 50 μl of Caspase-3 substrate solution was immediately added to each test well. […] Cell viability was determined by MTS® assay. […] Cell viability was determined by MTS® assay.

## NC(CCS)C(=O)O (racemic) [Homocysteine, DL-Homocysteine]
Hsp32; SK-HEP-1, 30 μM, 2 hr
  Hsp32 gene expression: increase in expression
Hsp32; SK-HEP-1, Sn (IX) protoporphyrin 25 μM, Quercitin 15 μM
  Hsp32 gene expression: induced
SK-HEP-1 cells [1]; SK-HEP-1, NACCbl 30 μM, NAC 75 μM, Hcy conc. 200.000, n = 6, label Hcy = Hcy alone
  Absorbance at 490 nm, Mean: 0.360
SK-HEP-1 cells [1]; [Hcy] 30 μM, [NAC] = 45 μM, [NACCbl] = 12.5 μM, [Folate] = 25 μM where named in the label, label Hcy/HCy = Hcy alone
  Mean (FIG. 14, protection of SK-HEP-1 cells from Hcy): 0.616
SK-HEP-1 cells [1]; as E80, Hcy conc. 1.780
  Absorbance at 490 nm, Mean: 1.863
SK-HEP-1 cells [1]; as E80, Hcy conc. 3.125
  Absorbance at 490 nm, Mean: 1.578
SK-HEP-1 cells [1]; as E80, Hcy conc. 6.250
  Absorbance at 490 nm, Mean: 1.230
SK-HEP-1 cells [1]; as E80, Hcy conc. 12.500
  Absorbance at 490 nm, Mean: 1.177
SK-HEP-1 cells [1]; as E80, Hcy conc. 25.000
  Absorbance at 490 nm, Mean: 0.847
SK-HEP-1 cells [1]; as E80, Hcy conc. 50.000
  Absorbance at 490 nm, Mean: 0.739
SK-HEP-1 cells [1]; as E80, Hcy conc. 100.000
  Absorbance at 490 nm, Mean: 0.517
SK-HEP-1 cells [2]; conc. 1.780
  Normalized Data Log 2, Mean: 59.351
  Normalized Data Log 10, Mean: 89.537
SK-HEP-1 cells [2]; conc. 3.125
  Normalized Data Log 2, Mean: 48.077
  Normalized Data Log 10, Mean: 73.700
SK-HEP-1 cells [2]; conc. 6.250
  Normalized Data Log 2, Mean: 34.347
  Normalized Data Log 10, Mean: 54.413
SK-HEP-1 cells [2]; conc. 12.500
  Normalized Data Log 2, Mean: 32.253
  Normalized Data Log 10, Mean: 51.471
SK-HEP-1 cells [2]; conc. 25.000
  Normalized Data Log 2, Mean: 19.208
  Normalized Data Log 10, Mean: 33.145
SK-HEP-1 cells [2]; conc. 50.000
  Normalized Data Log 2, Mean: 14.935
  Normalized Data Log 10, Mean: 27.142
SK-HEP-1 cells [2]; conc. 100.000
  Normalized Data Log 2, Mean: 6.164
  Normalized Data Log 10, Mean: 14.820
SK-HEP-1 cells [2]; conc. 200.000
  Normalized Data Log 2, Mean: −0.033
  Normalized Data Log 10, Mean: 6.115
SK-HEP-1 cells [2]; SK-HEP-1, 2 hours
  Concentration achieving greater than 90% death (<10% survival): 25 µM
SK-HEP-1 cells [2]; SK-HEP-1, 2 hours, p<0.001
  Concentration that killed cells: ≥ 5 µM
SK-HEP-1 cells [2]; 0.781 μM
  Cell viability (MTS assay): 98.11 and 102.5676 and 102.4576 and 98.72 and 98.39
SK-HEP-1 cells [2]; 1.562 μM
  Cell viability (MTS assay): 100.5319 and 102.4026 and 85.18 and 81.33 and 81.6 and 98.83
SK-HEP-1 cells [2]; 3.125 μM
  Cell viability (MTS assay): 91.62 and 82.82 and 78.3 and 80.94 and 91.78
SK-HEP-1 cells [2]; 6.25 μM
  Cell viability (MTS assay): 62.02 and 28.4 and 38.2485 and 48.6474 and 67.63 and 55.0298
SK-HEP-1 cells [2]; 25 μM
  Cell viability (MTS assay): 1.495 and 0.5044 and 0.1192
SK-HEP-1 cells [2]; 50 μM
  Cell viability (MTS assay): 0.2843 (2×) and 0.9445 and 1.44 and 3.255
Hsp70
  Hsp70 gene expression: increase in expression
In vitro
  viability at 2 h, 0.781 µM: 99.8%
  viability at 2 h, 3.125 µM: 96%
SK-HEP-1 cells [3]; SK-HEP-1, NACCbl 30 μM two hours with or without Sn(IX)PP/quercetin, then Hcy conc. 200 two hours, label Hcy = Hcy alone
  Cell viability by MTS assay (FIG. 11), replicates 1-6: 0.33 and 0.312 and 0.39 and 0.302 and 0.421 and 0.406
SK-HEP-1 cells [3]; as E45, Hcy conc. 1.78
  Cell viability by MTS assay (FIG. 11), replicates 1-6: 1.746 and 1.932 and 1.95 and 1.83 and 1.837 and 1.884
SK-HEP-1 cells [3]; as E45, Hcy conc. 3.125
  Cell viability by MTS assay (FIG. 11), replicates 1-6: 1.543 and 1.487 and 1.656 and 1.63 and 1.593 and 1.558
SK-HEP-1 cells [3]; as E45, Hcy conc. 6.25
  Cell viability by MTS assay (FIG. 11), replicates 1-6: 1.304 and 1.406 and 1.227 and 1.176 and 1.15 and 1.119
SK-HEP-1 cells [3]; as E45, Hcy conc. 12.5
  Cell viability by MTS assay (FIG. 11), replicates 1-6: 1.104 and 1.001 and 1.042 and 1.114 and 1.324 and 1.479
SK-HEP-1 cells [3]; as E45, Hcy conc. 25
  Cell viability by MTS assay (FIG. 11), replicates 1-6: 0.692 and 0.956 and 0.876 and 0.882 and 0.937 and 0.74
SK-HEP-1 cells [3]; as E45, Hcy conc. 50
  Cell viability by MTS assay (FIG. 11), replicates 1-6: 0.678 and 0.881 and 0.602 and 0.77 and 0.724 and 0.779
SK-HEP-1 cells [3]; as E45, Hcy conc. 100
  Cell viability by MTS assay (FIG. 11), replicates 1-6: 0.654 and 0.449 and 0.466 and 0.501 and 0.522 and 0.51

## CN1c2c(nc(N)[nH]c2=O)NC[C@@H]1CNc1ccc(C(=O)N[C@@H](CCC(=O)O)C(=O)O)cc1 [folate, 5-Methyltetrahydrofolic acid disodium salt]
Hsp32; SK-HEP-1, 30 μM, 2 hr
  Hsp32 gene expression: increase in expression
SK-HEP-1 cells [4]
  Protection against apoptosis induced by homocysteine: partial protection
Hsp70
  Hsp70 gene expression: increase in expression
